Data: patent US20100113421A1, “NON-NUCLEOSIDE REVERSE TRANSCRIPTASE INHIBITORS” (priority 2006, published 2010)

Legend:
[1] = tested on: HIV strain containing the Y181C mutation; experiment: Spread assay, Y181C mutant strain; format: cell-based; settings: Human immunodeficiency virus 1; spread assay, 10% FBS, Y181C mutant strain; read-out: CIC95
In short: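 Acute HIV-1 infection of T-lymphoid cells run in the presence of 10% FBS, […]; potency expressed as CIC95.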

[2] = tested on: mutant strain containing both the K103N and Y181C mutations; experiment: Spread assay, mutant strain containing both K103N and Y181C; format: cell-based, HIV; settings: Human immunodeficiency virus 1; analogous spread assay, K103N and Y181C double mutant strain; read-out: CIC95
Description: Assays for the inhibition of acute HIV-1 infection of T-lymphoid cells (alternatively referred to herein as the “spread assay”) were conducted in accordance with Vacca, J. P. et al., Proc. Natl. Acad. Sci. USA 1994, 91: 4096. The assays (using 10% FBS) tested for inhibition of wild type HIV-1 and of HIV strains containing the Y181C or K103N mutation. […] (Note that the compound of Example 6 was tested only up to a 833 nM concentration and the CIC95 value was determined to be >833 nM. The compound of Example 78 was not tested in the Y1818C assay.) The compounds of Examples 1 to 119 (including Examples 70A and 70B) had CIC95 values of less than 1000 nanomolar in the assay employing the K103N mutant strain. In an analogous assay employing a mutant strain containing both the K103N and Y181C mutations, the compounds of Examples 70A, 70B and 78-115 had CIC95 values of less than 1000 nanomolar.

| Compound | IC95 [1] | IC95 [2] |
| --- | --- | --- |
| CC(C)c1c(C(=O)N(C)Cc2ccnc(N)c2)[nH]c(C(N)=O)c1S(=O)(=O)c1ccccc1 [Example 101] | < 8 µM | < 1 µM |
| Cc1cc(C)cc(S(=O)(=O)c2c(C(N)=O)[nH]c(C(=O)N(C)Cc3c(F)cncc3F)c2C)c1 [Example 111, N5-[(3,5-difluoropyridin-4-yl)methyl]-3-[(3,5-dimethylphenyl)sulfonyl]-N5,4-dimethyl-1H-pyrrole-2,5-dicarboxamide] | < 8 µM | < 1 µM |
| COc1ccc2c(c1)CN(C(=O)c1[nH]c(C(N)=O)c(S(=O)(=O)c3ccccc3)c1C)CCC2 [Example 91, 3-(phenylsulfonyl)-4-methyl-5-(8-methoxy-1,3,4,5-tetrahydro-2H-2-benzazepin-2-ylcarbonyl)-1H-pyrrole-2-carboxamide] | < 8 µM | < 1 µM |
